According to patent publication US20210261621A1, “Preparation of Dilipid Polymixins and Use Thereof as Antimicrobial Adjuvants” (priority 2018, published 2021):
Converted amounts (≈) assume the structure as drawn. Read-outs that look alike come from different tables or passages of the source. Positions of bridges follow the written chain, without caps; N, C: chain ends. Non-standard residues stand in square brackets, D forms with d. Residues, ends and D or L forms follow the SMILES beside them. *: point of attachment. Benzoyl(4-Ph) = O=C(c1ccc(-c2ccccc2)cc1)*; Dab = NCC[C@H](N)C(=O)O

Key:
E. coli 94393 = format: cell-based, Escherichia coli
Procedure: (§1) We then addressed the possibility for the dilipid polymyxins to display enhanced antibacterial activity against colistin-resistant Gram-negative pathogens. […] The extended hydrophobic region of the dilipid polymyxin may provide additional hydrophobic interactions to the outer membrane of colistin-resistant organisms. Eight MDR colistin-resistant Gram-negative bacterial isolates were tested, including two E. coli isolates harboring the mcr-1 plasmid-encoded polymyxin resistance gene. We found no difference between the antibacterial activity of dilipid polymyxins and colistin against colistin-resistant Gram-negative bacteria (Table 3).
(§2) Bacterial strains were either obtained from the American Type Culture Collection (ATCC), Canadian National Intensive Care Unit (CAN-ICU) surveillance study or the Canadian Ward Surveillance (CANWARD) study. Strains from both CAN-ICU and CANWARD are isolates recovered from patients diagnosed with a presumed infectious disease that were admitted in a participating medical center across Canada. Efflux-deficient strain PAO200 (lacking MexAB-OprM efflux system) and PA0750 (lacking MexAB-OprM, MexCD-OprJ, MexEF-OprN, MexJK and MexXY efflux systems, and the outer membrane protein OpmH) were kindly gifted by Dr. Ayush Kumar (University of Manitoba).
(§3) The in vitro antibacterial activity of the compounds studied were assessed by broth microdilution susceptibility testing following CLSI guidelines. Bacterial cultures were grown overnight prior to the assay. The overnight grown cultures were diluted in saline to 0.5 McFarland turbidity, followed by 1:50 dilution in Mueller-Hinton broth (MHB) for inoculation to a final concentration of approximately 5×10^5 colony forming units/mL. Testing was performed on 96-well plates where the tested compounds were 2-fold serially diluted in MHB and incubated with equal volumes of bacterial inoculum at 37° C. for 18 h. […] Wells containing MHB with or without bacterial cells were used as positive or negative control, respectively.

E. coli 94474 = format: cell-based, Escherichia coli
Procedure: as §1, §2, §3

MSSE CANWARD-2008 81388 = format: cell-based, Staphylococcus epidermidis; details: for MIC: MSSE CANWARD-2008 81388 (methicillin-susceptible Staphylococcus epidermidis)
Source text: as §2, §3

K. pneumoniae 116381 = format: cell-based, Klebsiella pneumoniae; details: K. pneumoniae 116381
Source text: as §2, §3

K. pneumoniae ATCC 13883 = format: cell-based, Klebsiella pneumoniae; details: K. pneumoniae ATCC 13883
Source text: as §2, §3

A. baumannii ATCC 17978 = format: cell-based, Acinetobacter baumannii; details: A. baumannii ATCC 17978
Source text: as §2, §3

A. baumannii LAC-4 = format: cell-based, Acinetobacter baumannii; details: A. baumannii LAC-4
Source text: as §2, §3

A. baumannii 110193 = format: cell-based, Acinetobacter baumannii; details: A. baumannii 110193
Source text: as §2, §3

A. baumannii AB031 = format: cell-based, Acinetobacter baumannii; details: A. baumannii AB031
Source text: as §2, §3

[1] = test system: A. baumannii CAN-ICU 63169; format: cell-based, Acinetobacter baumannii; details: A. baumannii CAN-ICU 63169
Source text: as §2, §3

A. baumannii AB027 = format: cell-based, Acinetobacter baumannii; details: A. baumannii AB027
Source text: as §2, §3

P. aeruginosa PAO1 = format: cell-based, Pseudomonas aeruginosa; details: P. aeruginosa PAO1 (wild type)
Source text: as §2, §3

[2] = test system: P. aeruginosa PA259-96918; format: cell-based, Pseudomonas aeruginosa; details: P. aeruginosa PA259-96918
Source text: as §2, §3

[3] = test system: P. aeruginosa PA260-97103; format: cell-based, Pseudomonas aeruginosa; details: P. aeruginosa PA260-97103
Source text: as §2, §3

[4] = test system: P. aeruginosa PA264-104354; format: cell-based, Pseudomonas aeruginosa; details: P. aeruginosa PA264-104354
Source text: as §2, §3

P. aeruginosa ATCC 27853 = format: cell-based, Pseudomonas aeruginosa; details: P. aeruginosa ATCC 27853
Source text: as §2, §3

P. aeruginosa PA101885 = format: cell-based, Pseudomonas aeruginosa; details: P. aeruginosa PA101885
Source text: as §2, §3

[5] = test system: P. aeruginosa PA262-101856; format: cell-based, Pseudomonas aeruginosa; details: P. aeruginosa PA262-101856
Source text: as §2, §3

[6] = test system: P. aeruginosa CAN-ICU 62308; format: cell-based, Pseudomonas aeruginosa; details: P. aeruginosa CAN-ICU 62308
Source text: as §2, §3

P. aeruginosa PA095 = format: cell-based, Pseudomonas aeruginosa; details: P. aeruginosa PA095
Source text: as §2, §3

P. aeruginosa PA100036 = format: cell-based, Pseudomonas aeruginosa; details: P. aeruginosa PA100036
Source text: as §2, §3

A. baumannii 92247 = format: cell-based, Acinetobacter baumannii
Procedure: as §1, §2, §3

P. aeruginosa 114228 = format: cell-based, Pseudomonas aeruginosa
Procedure: as §1, §2, §3

P. aeruginosa 101243 = format: cell-based, Pseudomonas aeruginosa
Procedure: as §1, §2, §3

P. aeruginosa 91433 = format: cell-based, Pseudomonas aeruginosa
Procedure: as §1, §2, §3

MRSE CAN-ICU 61589 = format: cell-based, S. epidermidis; details: MRSE CAN-ICU 61589 (methicillin-resistant S. epidermidis)
Source text: as §2, §3

Compound	MIC (MSSE CANWARD-2008 81388)	MIC (K. pneumoniae 116381)	MIC (K. pneumoniae ATCC 13883)	MIC (A. baumannii ATCC 17978)	MIC (A. baumannii LAC-4)	MIC (A. baumannii 110193)	MIC (A. baumannii AB031)	MIC [1]	MIC (A. baumannii AB027)	MIC (P. aeruginosa PAO1)	MIC [2]	MIC [3]	MIC [4]	MIC (P. aeruginosa ATCC 27853)	MIC (P. aeruginosa PA101885)	MIC [5]	MIC [6]	MIC (P. aeruginosa PA095)	MIC (P. aeruginosa PA100036)	MIC (MRSE CAN-ICU 61589)	further results
CC(C)C[C@@H]1NC(=O)[C@@H](Cc2ccccc2)NC(=O)[C@H](CCN)NC(=O)[C@@H](NC(=O)[C@H](CCN)NC(=O)[C@@H](NC(=O)[C@H](CCNC(=O)c2ccc(-c3ccccc3)cc2)NC(=O)c2ccc(-c3ccccc3)cc2)[C@@H](C)O)CCNC(=O)[C@H]([C@@H](C)O)NC(=O)[C@H](CCN)NC(=O)[C@H](CCN)NC1=O [Compound 5, Dibiphenyl-4-Carboxylic Acid (Di-Biphenyl) Polymyxin] ({Benzoyl(4-Ph)}-[Dab](Benzoyl(4-Ph))T[Dab][Dab][Dab][dF]L[Dab][Dab]T; lactam 4-C)	8 µg/mL (≈ 5.62 µM)	>128 µg/mL	>128 µg/mL	16 µg/mL (≈ 11.2 µM)	16 µg/mL (≈ 11.2 µM)	16 µg/mL (≈ 11.2 µM)	8 µg/mL (≈ 5.62 µM)	64 µg/mL (≈ 45 µM)	6 µg/mL (≈ 4.21 µM)	8 µg/mL (≈ 5.62 µM)	8 µg/mL (≈ 5.62 µM)	8 µg/mL (≈ 5.62 µM)	8 µg/mL (≈ 5.62 µM)	32 µg/mL (≈ 22.5 µM)	8 µg/mL (≈ 5.62 µM)	8 µg/mL (≈ 5.62 µM)	16 µg/mL (≈ 11.2 µM)	4 µg/mL (≈ 2.81 µM)	8 µg/mL (≈ 5.62 µM)	8 µg/mL (≈ 5.62 µM)	MIC (E. coli 94393; 94393): 16 µg/mL (≈ 11.2 µM); MIC (E. coli 94474; 94474): 8 µg/mL (≈ 5.62 µM); fold better MIC than colistin (MSSE CANWARD-2008 81388; methicillin-susceptible Staphylococcus epidermidis): 32 fold; MIC (A. baumannii 92247; 92247): 8 µg/mL (≈ 5.62 µM); MIC (P. aeruginosa 114228; 114228): 16 µg/mL (≈ 11.2 µM); MIC (P. aeruginosa 101243; 101243): >128 µg/mL; MIC (P. aeruginosa 91433; 91433): 8 µg/mL (≈ 5.62 µM)
colistin [reference compound]	256 µg/mL	1 µg/mL	≤0.25 µg/mL	0.25 µg/mL	0.125 µg/mL	0.25 µg/mL	0.25 µg/mL	32 µg/mL	0.25 µg/mL	1 µg/mL	0.25 µg/mL	0.5 µg/mL	2 µg/mL	2 µg/mL	1 µg/mL	2 µg/mL	2 µg/mL	0.25 µg/mL	1 µg/mL	128 µg/mL	MIC (E. coli 94393; E. coli 94393, colistin-resistant multidrug-resistant isolate): 4 µg/mL; MIC (E. coli 94474; E. coli 94474, colistin-resistant multidrug-resistant isolate): 16 µg/mL; MIC (A. baumannii 92247; A. baumannii 92247, colistin-resistant multidrug-resistant isolate): 4 µg/mL; MIC (P. aeruginosa 114228; P. aeruginosa 114228, colistin-resistant multidrug-resistant isolate): 4 µg/mL; MIC (P. aeruginosa 101243; P. aeruginosa 101243, colistin-resistant multidrug-resistant isolate): 1024 µg/mL; MIC (P. aeruginosa 91433; P. aeruginosa 91433, colistin-resistant multidrug-resistant isolate): 4 µg/mL
